From patent publication US20050239656A1, “Pyridine compounds or salts thereof and herbicides containing the same” (priority 2002, published 2005)

Each compound was assayed on rice (var. Nihonbare) (assay: Test Example 3: paddy pot test, transplanted rice). Conditions: active ingredient 500 g/ha, applied 4th day after transplantation, visually observed 21st day after application, 0 = non-treated, 100 = complete kill.
Assay type: in vivo, Oryza sativa L.
Description: (§1) Paddy field soil was put into a 1/1,000,000 ha pot, and seed of barnyardgrass and japanese bulrush were sown and slightly covered with soil. Then, the pot was left to stand still in a greenhouse in a state where the depth of flooding water was from 0.5 to 1 cm, and one day or two days later, tubers of japanese ribbon wapato were planted. Thereafter, the depth of flooding water was maintained at a level of from 3 to 4 cm, and when barnyardgrass and japanese bulrush reached a 0.5 leaf stage and japanese ribbon wapato reached a primary leaf stage, an aqueous diluted solution of a wettable powder or emulsifiable concentrate having the compound of the present invention formulated in accordance with a usual formulation method, was uniformly applied under submerged conditions by a pipette so that the dose of the active ingredient would be at a predetermined level. On the other hand, paddy field soil was put into a 1/1,000,000 ha pot and puddled and leveled, and the depth of flooding water was from 3 to 4 cm. Next day, rice (var. Nihonbare) of 2 leaf stage was transplanted in a depth of 3 cm. On the 4th day after the transplantation, the compound of the present invention was applied in the same manner as described above. On the 14 days after the application of the herbicide, the growth of barnyard grass, japanese burlrush and japanese ribbon wapato was visually observed and on the 21st day after the application of the herbicide, the growth of rice was visually observed, and the herbicidal effects were evaluated by the growth-controlling degrees (%) ranging from 0 (equivalent to the non-treated plot) to 100 (complete kill), whereby the results shown in Table 5 were obtained.

SMILES | Growth controlling degree (%) Rice [%]
CC(C)C(c1cnccc1C(F)(F)F)N(C)C(=O)C=Cc1cccnc1 (stereo not drawn) [Compound I-184] | 10

These compounds were tested on redroot pigweed (assay: Test Example 2: soil surface treatment, upland pot test). Conditions: active ingredient 500 g/ha, observed 20th to 28th day.
Assay type: in vivo, Amaranthus retroflexus L.
Description: (§2) Upland field soil was put into a 1/170,000 ha pot, and seed of various plants (barnyardgrass, crabgrass, green foxtail, redroot pigweed, prickly sida, velvetleaf, rice, wheat, corn, soybean) were sown. On the 1st day after the sowing, a wettable powder or emulsifiable concentrate having the compound of the present invention formulated in accordance with a usual formulation method, was weighed so that the active ingredient would be a predetermined amount, and diluted with water in an amount of 1,500 L/ha. The herbicide thus adjusted was applied by a small size sprayer for soil surface treatment. On the 20th to 28th days after the application of the herbicide, the growth of the respective plants was visually observed, and the herbicidal effects were evaluated by the growth controlling degrees (%) ranging from 0 (equivalent to the non-treated plot) to 100 (complete kill), whereby the results shown in Table 4, were obtained.

SMILES | Growth controlling degree (%) Redroot pigweed [%]
CC(C)C(c1cnccc1C(F)(F)F)N(C)C(=O)Nc1ccccc1 (stereo not drawn) [Compound I-230] | 60
CC(C)C(c1cnccc1C(F)(F)F)N(C)C(=O)C=Cc1cccnc1 (stereo not drawn) [Compound I-184] | 30
CNC(=S)N(C)C(c1cnccc1C(F)(F)F)C(C)C (racemic) [Compound I-112] | 70
CC(C)C(c1cnccc1C(F)(F)F)N(C)C(=O)CCl (stereo not drawn) [I-168] | 100

Each compound was assayed on japanese bulrush (assay: Test Example 3: paddy pot test, application under submerged conditions). Conditions: active ingredient 500 g/ha; submerged application at 0.5 leaf stage; visually observed 14 days after application; 0 = non-treated, 100 = complete kill.
Assay type: in vivo, Scirpus juncoides
Description: as §1, with “the” for “the other hand, paddy field soil was put into a 1/1,000,000 ha pot and puddled and leveled, and the depth of flooding water was from 3 to 4 cm. Next day, rice (var. Nihonbare) of 2 leaf stage was transplanted in a depth of 3 cm. On the 4th day after the transplantation, the compound of the present invention was applied in the same manner as described above. On the”

SMILES | Growth controlling degree (%) Japanese bulrush [%]
CC(C)C(c1cnccc1C(F)(F)F)N(C)C(=O)C=Cc1cccnc1 (stereo not drawn) [Compound I-184] | 90

These compounds were tested on barnyardgrass in the same assay as above. Conditions: active ingredient 500 g/ha; submerged application at 0.5 leaf stage; visually observed 14 days after application; 0 = non-treated, 100 = complete kill.
Assay type: in vivo, Echinochloa crus-galli L.
Description: as §1, with “the” for “the other hand, paddy field soil was put into a 1/1,000,000 ha pot and puddled and leveled, and the depth of flooding water was from 3 to 4 cm. Next day, rice (var. Nihonbare) of 2 leaf stage was transplanted in a depth of 3 cm. On the 4th day after the transplantation, the compound of the present invention was applied in the same manner as described above. On the”

SMILES | Growth controlling degree (%) Barnyardgrass [%]
CC(C)C(c1cnccc1C(F)(F)F)N(C)C(=O)C=Cc1cccnc1 (stereo not drawn) [Compound I-184] | 70

These compounds were tested on rice (assay: Test Example 2: soil surface treatment, upland pot test). Conditions: active ingredient 500 g/ha, observed 20th to 28th day.
Assay type: in vivo, Oryza sativa L.
Description: as §2

SMILES | Growth controlling degree (%) Rice [%]
CC(C)C(c1cnccc1C(F)(F)F)N(C)C(=O)Nc1ccccc1 (stereo not drawn) [Compound I-230] | 10
CC(C)C(c1cnccc1C(F)(F)F)N(C)C(=O)C=Cc1cccnc1 (stereo not drawn) [Compound I-184] | 20
CNC(=S)N(C)C(c1cnccc1C(F)(F)F)C(C)C (racemic) [Compound I-112] | 40
CC(C)C(c1cnccc1C(F)(F)F)N(C)C(=O)CCl (stereo not drawn) [I-168] | 98

Each compound was assayed on prickly sida in the same assay as above. Conditions: active ingredient 500 g/ha, observed 20th to 28th day.
Assay type: in vivo, Sida spinosa L.
Description: as §2

SMILES | Growth controlling degree (%) Prickly sida [%]
CC(C)C(c1cnccc1C(F)(F)F)N(C)C(=O)Nc1ccccc1 (stereo not drawn) [Compound I-230] | 30
CC(C)C(c1cnccc1C(F)(F)F)N(C)C(=O)C=Cc1cccnc1 (stereo not drawn) [Compound I-184] | 80
CNC(=S)N(C)C(c1cnccc1C(F)(F)F)C(C)C (racemic) [Compound I-112] | 40
CC(C)C(c1cnccc1C(F)(F)F)N(C)C(=O)CCl (stereo not drawn) [I-168] | 70

The compounds below were run on barnyardgrass in the same assay as above. Conditions: active ingredient 500 g/ha, observed 20th to 28th day.
Assay type: in vivo, Echinochloa crus-galli L.
Description: as §2

SMILES | Growth controlling degree (%) Barnyardgrass [%]
CC(C)C(c1cnccc1C(F)(F)F)N(C)C(=O)Nc1ccccc1 (stereo not drawn) [Compound I-230] | 50
CC(C)C(c1cnccc1C(F)(F)F)N(C)C(=O)C=Cc1cccnc1 (stereo not drawn) [Compound I-184] | 30
CNC(=S)N(C)C(c1cnccc1C(F)(F)F)C(C)C (racemic) [Compound I-112] | 20
CC(C)C(c1cnccc1C(F)(F)F)N(C)C(=O)CCl (stereo not drawn) [I-168] | 100

These compounds were tested on corn in the same assay as above. Conditions: active ingredient 500 g/ha, observed 20th to 28th day.
Assay type: in vivo, Zea mays L.
Description: as §2

SMILES | Growth controlling degree (%) Corn [%]
CC(C)C(c1cnccc1C(F)(F)F)N(C)C(=O)Nc1ccccc1 (stereo not drawn) [Compound I-230] | 40
CC(C)C(c1cnccc1C(F)(F)F)N(C)C(=O)C=Cc1cccnc1 (stereo not drawn) [Compound I-184] | 0
CNC(=S)N(C)C(c1cnccc1C(F)(F)F)C(C)C (racemic) [Compound I-112] | 10
CC(C)C(c1cnccc1C(F)(F)F)N(C)C(=O)CCl (stereo not drawn) [I-168] | 10

The compounds below were run on green foxtail in the same assay as above. Conditions: active ingredient 500 g/ha, observed 20th to 28th day.
Assay type: in vivo, Setaria viridis L.
Description: as §2

SMILES | Growth controlling degree (%) Green foxtail [%]
CC(C)C(c1cnccc1C(F)(F)F)N(C)C(=O)Nc1ccccc1 (stereo not drawn) [Compound I-230] | 70
CC(C)C(c1cnccc1C(F)(F)F)N(C)C(=O)C=Cc1cccnc1 (stereo not drawn) [Compound I-184] | 40
CNC(=S)N(C)C(c1cnccc1C(F)(F)F)C(C)C (racemic) [Compound I-112] | 50
CC(C)C(c1cnccc1C(F)(F)F)N(C)C(=O)CCl (stereo not drawn) [I-168] | 98

Each compound was assayed on crabgrass in the same assay as above. Conditions: active ingredient 500 g/ha, observed 20th to 28th day.
Assay type: in vivo, Digitaria sanguinalis L.
Description: as §2

SMILES | Growth controlling degree (%) Crabgrass [%]
CC(C)C(c1cnccc1C(F)(F)F)N(C)C(=O)Nc1ccccc1 (stereo not drawn) [Compound I-230] | 98
CC(C)C(c1cnccc1C(F)(F)F)N(C)C(=O)C=Cc1cccnc1 (stereo not drawn) [Compound I-184] | 98
CNC(=S)N(C)C(c1cnccc1C(F)(F)F)C(C)C (racemic) [Compound I-112] | 70
CC(C)C(c1cnccc1C(F)(F)F)N(C)C(=O)CCl (stereo not drawn) [I-168] | 98

The compounds below were run on velvetleaf in the same assay as above. Conditions: active ingredient 500 g/ha, observed 20th to 28th day.
Assay type: in vivo, Abutilon theophrasti MEDIC.
Description: as §2

SMILES | Growth controlling degree (%) Velvetleaf [%]
CC(C)C(c1cnccc1C(F)(F)F)N(C)C(=O)Nc1ccccc1 (stereo not drawn) [Compound I-230] | 0
CC(C)C(c1cnccc1C(F)(F)F)N(C)C(=O)C=Cc1cccnc1 (stereo not drawn) [Compound I-184] | 50
CNC(=S)N(C)C(c1cnccc1C(F)(F)F)C(C)C (racemic) [Compound I-112] | 10
CC(C)C(c1cnccc1C(F)(F)F)N(C)C(=O)CCl (stereo not drawn) [I-168] | 0

These compounds were tested on soybean in the same assay as above. Conditions: active ingredient 500 g/ha, observed 20th to 28th day.
Assay type: in vivo, Glycine max Merr.
Description: as §2

SMILES | Growth controlling degree (%) Soyabean [%]
CC(C)C(c1cnccc1C(F)(F)F)N(C)C(=O)Nc1ccccc1 (stereo not drawn) [Compound I-230] | 0
CC(C)C(c1cnccc1C(F)(F)F)N(C)C(=O)C=Cc1cccnc1 (stereo not drawn) [Compound I-184] | 20
CNC(=S)N(C)C(c1cnccc1C(F)(F)F)C(C)C (racemic) [Compound I-112] | 10
CC(C)C(c1cnccc1C(F)(F)F)N(C)C(=O)CCl (stereo not drawn) [I-168] | 20
